The subject of this data set is Aryl hydrocarbon receptor (Cavia porcellus). Description: Activation of AhR expressed in guinea pig cytosolic fractions over expressed with XRE by ELISA based Ah-immunoassay relative to TCDD. On the technique in general: In an ELISA, binding on a coated surface is turned into a signal by an enzyme label.

`Cc1c2c3ccccc3nc-2sc2[nH]c3ccccc3c12` gave an Activity of 0.36.

In turn, `Cc1c2c3ccccc3nc-2[se]c2[nH]c3ccccc3c12` showed an Activity of 0.38.

Consider `c1ccc2c3cc4c([nH]c5ccccc54)[se]c-3nc2c1`, for which the Activity worked out at 0.32.

In turn, `c1ccc2c3cc4c([nH]c5ccccc54)sc-3nc2c1` had an Activity of 0.29.

The molecule `O=c1c2c([nH]c3ccccc32)sc2[nH]c3ccccc3c12` displayed an Activity of 0.039.

In turn, `c1ccc2c3cc4[nH]c5ccccc5c4sc-3nc2c1` yielded an Activity of 0.132.

As for `c1ccc2c(c1)[nH]c1cc3c(cc12)[nH]c1ccccc13`, the Activity is reported as 1.48.

`COc1ccc2nc3[se]c4[nH]c5ccc(OC)cc5c4c(C)c-3c2c1` had an Activity of 0.013.

As for `CC1(C)c2c([nH]c3ccccc23)Sc2[nH]c3ccccc3c21`, the Activity was determined as 0.0033.

`COc1ccc2nc3[se]c4[nH]c5ccc(OC)cc5c4cc-3c2c1` registered an Activity of 0.009.

`C1=Cc2sc3ccccc3c2Sc2c1sc1ccccc21` showed an Activity of 0.055.

`C1=Cc2sc3ccccc3c2[Se]c2c1sc1ccccc21` registered an Activity of 0.018.
